Data taken from patent US20140113931A1, “SUBSTITUTED PICOLINAMIDE KINASE INHIBITORS” (Portola Pharmaceuticals, Inc., priority 2012, published 2014).

target: T1, full length active recombinant SYK enzyme (Homo sapiens, UniProt P43405); assay: Inhibition of Syk tyrosine phosphorylation activity (LANCE TR-FRET kinase assay); format: biochemical; settings: 1 nM active SYK enzyme, 550 nM SYK-substrate, 100 μM ATP, 1 hour at room temperature
T1 construct: full length active recombinant SYK enzyme (Millipore, CA); purchased Millipore, CA
Protocol: The in vitro and in vivo human Syk activities of the inventive compounds can be determined by various procedures known in the art, such as a test for their ability to inhibit the activity of human plasma Syk. […] The IC50 value is the concentration (in nM) of the compound required to provide 50% inhibition of human Syk proteolytic activity.
An in vitro assay for detecting and measuring inhibition activity against Syk is as follows:
SYK tyrosine phosphorylation activity is measured using the LANCE™ Technology developed by Perkin Elmer Life and Analytical Sciences (Boston, Mass.). LANCE™ refers to homogeneous time resolved fluorometry applications using techniques such as time-resolved fluorescence resonance energy transfer assay (TR-FRET) (see generally for procedures in Perkin Elmer Application Note—How to Optimize a Tyrosine Kinase Assay Using Time Resolved Fluorescence-Based LANCE Detection, wwww.perkinelmer.com/lifesciences). The assay principle involves detection of a phosphorylated substrate using energy transfer from a phosphospecific europium-labeled antibody to streptavidin-allophycocyanin as an acceptor.
Molecules are reconstituted in 30% DMSO and serially diluted 1:3 with the final dilution containing DMSO in the absence of the candidate molecule. The final DMSO concentration in the assay is 3%. Kinase assays are performed as a two part reaction. The first reaction is a kinase reaction and which comprises of a candidate molecule, full length active recombinant SYK enzyme (Millipore, CA) and biotin-labeled SYK-specific substrate biotin-DEEDYESP-OH. The second reaction involves termination of the kinase reaction and the simultaneous addition of the detection reagents-europium-labeled anti-phosphotyrosine reagent (Eu-W1024-PY100, Perkin Elmer, Boston, Mass.) and Streptavidin-Allophycocyanin detection reagent (SA-APC, Prozyme, CA). The kinase reaction is performed in a black U-bottom 96-well microtitre plate. The final reaction volume is 50 μL and contains a final concentration of 1 nM active SYK enzyme, 550 nM SYK-substrate, and 100 μM ATP diluted in a buffer containing 50 mM Tris pH 7.5, 5 mM MgCl2, and 1 mM DTT. The reaction is allowed to proceed for 1 hour at room temperature. The quench buffer contains 100 mM Tris pH 7.5, 300 mM NaCl2, 20 mM EDTA, 0.02% Brij35, and 0.5% BSA. The detection reagents are added to the reaction mixture at the following dilutions-1:500 for Eu-W1024-PY100 and 1:250 for SA-APC. The kinase reaction is terminated by the addition of 50 μL quench buffer containing the detection reagents. The detection is allowed to proceed for 1 hr at room temperature. Detection of the phosphorlated substrate in the absence and presence of inhibitors is measured in the TR-FRET instrument, Analyst HT (Molecular Probes, Sunnyvale, Calif.) and the condition for measurements are set up using CriterionHost Release 2.0 (Molecular Probes, Sunnyvale, Calif.). The settings used are a follows: excitation 360 nm, emission 665-7.5 nm, beam splitter 350 nm 50/50, flash 100 pulses, delay 60 us, integration 400 us, z-height 2 mm. Inhibition of SYK-tyrosine kinase activity is calculated as the maximum response observed in the presence of inhibitor, compared to that in the absence of inhibitor. IC50s were derived by non-linear regression analysis.

IC50 [nM]	SMILES
10 to 100	CCc1cc(Nc2cc(N[C@@H]3CCCC[C@@H]3N)cnc2C(N)=O)on1 [Example 37, 5-((1R,2S)-2-aminocyclohexylamino)-3-(3-ethylisoxazol-5-ylamino)picolinamide]
1 to 10	CC[C@@H](Nc1cnc(C(N)=O)c(Nc2cc(C3CC3)ns2)c1)C(N)=O [Example 38, (R)-5-(1-amino-1-oxobutan-2-ylamino)-3-(3-cyclopropylisothiazol-5-ylamino)picolinamide]
10 to 100	CC(C)(C)[C@@H](Nc1cnc(C(N)=O)c(Nc2cc(C3CC3)ns2)c1)C(N)=O [Example 39, (R)-5-(1-amino-3,3-dimethyl-1-oxobutan-2-ylamino)-3-(3-cyclopropylisothiazol-5-ylamino)picolinamide]
10 to 100	CC(C)(C)C[C@@H](Nc1cnc(C(N)=O)c(Nc2cc(F)c3ncccc3c2)c1)C(N)=O [Example 40, (R)-5-(1-amino-4,4-dimethyl-1-oxopentan-2-ylamino)-3-(8-fluoroquinolin-6-ylamino)picolinamide]
1 to 10	CC(C)(C)C[C@@H](Nc1cnc(C(N)=O)c(Nc2ccc3cccnc3c2)c1)C(N)=O [Example 41, (R)-5-(1-amino-4,4-dimethyl-1-oxopentan-2-ylamino)-3-(quinolin-7-ylamino)picolinamide]
10 to 100	Cc1cc(Nc2cc(N[C@@H](C(N)=O)c3ccccc3)cnc2C(N)=O)sn1 [Example 42, (R)-5-(2-amino-2-oxo-1-phenylethylamino)-3-(3-methylisothiazol-5-ylamino)picolinamide]
10 to 100	Cc1cc(Nc2cc(N[C@H](C)C(N)=O)cnc2C(N)=O)sn1 [Example 43, (R)-5-(1-amino-1-oxopropan-2-ylamino)-3-(3-methylisothiazol-5-ylamino)picolinamide]
< 1	Cc1cc(Nc2cc(N[C@H](CC(F)(F)F)C(N)=O)cnc2C(N)=O)sn1 [Example 44, (R)-5-(1-amino-4,4,4-trifluoro-1-oxobutan-2-ylamino)-3-(3-methylisothiazol-5-ylamino)picolinamide]
10 to 100	Cc1cc(Nc2cc(N[C@H](CCS(C)(=O)=O)C(N)=O)cnc2C(N)=O)sn1 [Example 45, (R)-5-(1-amino-4-(methylsulfonyl)-1-oxobutan-2-ylamino)-3-(3-methylisothiazol-5-ylamino)picolinamide]
1 to 10	CC(C)C[C@@H](Nc1cnc(C(N)=O)c(Nc2cc(-c3ccncc3)no2)c1)C(N)=O [Example 47, (R)-5-(1-amino-4-methyl-1-oxopentan-2-ylamino)-3-(3-(pyridin-4-yl)isoxazol-5-ylamino)picolinamide]
10 to 100	COC[C@@H](Nc1cnc(C(N)=O)c(Nc2cc(C)ns2)c1)C(N)=O [Example 48, (R)-5-(1-amino-3-methoxy-1-oxopropan-2-ylamino)-3-(3-methylisothiazol-5-ylamino)picolinamide]
1 to 10	NC(=O)c1ncc(N[C@@H]2CCCC[C@@H]2N)cc1Nc1cc(-c2ccncc2)no1 [Example 49, 5-((1R,2S)-2-aminocyclohexylamino)-3-(3-(pyridin-4-yl)isoxazol-5-ylamino)picolinamide]
10 to 100	NC(=O)c1ncc(N[C@@H]2CCCC[C@@H]2N)cc1Nc1cc(-c2cccnc2)no1 [Example 50, 5-((1R,2S)-2-aminocyclohexylamino)-3-(3-(pyridin-3-yl)isoxazol-5-ylamino)picolinamide]
1 to 10	NC(=O)c1ncc(N[C@H](CC(F)(F)F)C(N)=O)cc1Nc1ccc2cccnc2c1 [Example 51, (R)-5-(1-amino-4,4,4-trifluoro-1-oxobutan-2-ylamino)-3-(quinolin-7-ylamino)picolinamide]
10 to 100	NC(=O)c1ncc(N[C@@H]2CCOC[C@@H]2N)cc1Nc1cc(-c2ccncc2)no1 [Example 52, 5-((3R,4R)-3-aminotetrahydro-2H-pyran-4-ylamino)-3-(3-(pyridin-4-yl)isoxazol-5-ylamino)picolinamide]
10 to 100	NC(=O)c1ncc(N[C@@H]2CCOC[C@@H]2N)cc1Nc1cc(-c2cccnc2)no1 [Example 53, 5-((3R,4R)-3-aminotetrahydro-2H-pyran-4-ylamino)-3-(3-(pyridin-3-yl)isoxazol-5-ylamino)picolinamide]
100 to 1000	CC[C@@H](Nc1cnc(C(N)=O)c(Nc2cnc3cccnc3c2)c1)C(N)=O [Example 54, (R)-3-(1,5-naphthyridin-3-ylamino)-5-(1-amino-1-oxobutan-2-ylamino)picolinamide]
10 to 100	NC(=O)c1ncc(N[C@@H]2CCCC[C@@H]2N)cc1Nc1cccc(-c2ncco2)c1 [Example 55, 5-(((1R,2S)-2-aminocyclohexyl)amino)-3-((3-(oxazol-2-yl)phenyl)amino)picolinamide]
> 1000	NC(=O)c1ncc(N[C@@H]2CCCC[C@@H]2N)cc1Nc1cncs1 [Example 56, 5-(((1R,2S)-2-aminocyclohexyl)amino)-3-(thiazol-5-ylamino)picolinamide]
